Source: patent US9493478B2, “Fused ring compound containing furan or salt thereof and pharmaceutical composition comprising same” (YUHAN CORPORATION, priority 2012, dated 2016)

Experiments:
Type in all cases: biochemical
[1] = biological target: PI3Kγ (p120γ)(h) (Homo sapiens, UniProt P48736); test: Assay for phosphatidylinositol 3-kinase gamma (PI3Kγ) activity, PI3K-HTRF kit; conditions: TR-FRET; enzyme 1.45 μg/ml, 10 μM PIP2, 10 μM ATP
Protocol: (§1) The compounds of the present invention were assayed for the activity of phosphatidylinositol 3-kinase gamma (PI3Kγ) by using a PI3K enzyme-homogenous time resolved fluorescence (PI3K-HTRF) kit, which is available from Upstate (Millipore Co, Billerica, Mass., USA).
(§2) Three kinds of buffer solutions including a phosphorylation reaction solution (a reaction buffer containing 40 mM MgCl2 which is available from Upstate was diluted 4 times and added with 5 mM DTT), a stop solution (STOP A and B solutions which are available from Upstate were mixed at a ratio of 3:1) and a fluorescence detection solution (Detection solutions A, B and C which are available from Upstate were mixed at a ratio of 1:1:18) were prepared. 1 mM of PIP2 substrate (phosphatidylinositol 4,5 biphosphate; Upstate), PI3Kγ (#14-558; Upstate) enzyme and 10 mM ATP (Sigma Aldrich Co., St. Louis, Mo., USA) were prepared. Each of PI3Kγ, 1 mM PIP2 and 10 mM ATP was diluted to 2.9 μg/ml (final reaction concentration: 1.45 μg/ml), 20 μM (final reaction concentration: 10 μM) and 40 μM (final reaction concentration: 10 μM), respectively. The buffer solution used for dilution and preparation process was the phosphorylation reaction solution. The stop solution was used for the termination of phosphorylation reaction, and the fluorescence detection solution was used for the detection of time-resolved fluorescence signals.
(§3) Each test sample was transferred to a 384 well low flange white flat bottom microplate (#3572, Corning Life Sciences, Lowell, Mass., USA) by using a multi 8-channel (Pipetman Neo multi 8×20, Gilson, Middleton, Wis., USA) to make a final phosphorylation reaction volume of 20 μl per each well. For the negative control, 5 μl of 14.4% DMSO and 10 μl of PIP2 substration solution were used, and 5 μl of 14.4% DMSO and 10 μl of PIP2/PI3Kγ mixed solution were used as the positive control. For the test group, 5 μl of a solution prepared by dissolving the compound obtained in Example in DMSO and 10 μl of PIP2/PI3Kγ mixed solution were used. Before the initiation of the phosphorylation reaction, sample compounds were pretreated with the enzyme for approximately 10 minutes, and then the phosphorylation reaction was induced by adding 5 μl of ATP. Since each of the test compound and ATP takes up 25% of the total volume, and PIP2 and PI3Kγ take up 50% of the total volume during the reaction, each solution was concentrated 4 and 2 times, respectively, before mixing the solutions. Subsequently, the test sample was gently shook for 3 minutes and subjected to a phosphorylation reaction for 90 minutes at room temperature, which was then added with 5 μl of the stop solution to terminate the phosphorylation reaction. In order to induce a time-resolved fluorescence reaction, 5 μl of the fluorescence detection solution was added to the sample. The fluorescence detection solution contains biotin-phosphatidylinositol 3,4,5-triphosphate (PIP3), streptavidin-labeled Allopycocyanin (APC) and europium-labeled Pleckstrin homology domain (the PIP3 binds to PH domain), and the time-resolved fluorescence reaction is induced by a series of reaction of PH domain and PIP3, and biotin and streptavidin. The sample was left to stand for 6 hours at room temperature, and the time-resolved fluorescence resonance energy transfer (TR-FRET) rate was measured (emission wavelength: 665 nm, 620 nm, excitation wavelength: 340 nm) by using a Flexstation3 Micro plate reader (Molecular Devices, USA). TR-FRET Rate and TR-Inhibition Rate were calculated based on Equations 1 and 2 below, and the results are expressed in IC50, which is the concentration of a compound that inhibits 50% of PI3Kγ activity in vitro. TR-FRET Rate=(665 nm emission wavelength/620 nm emission wavelength)×10000 <Equation 1> TR-FRET Inhibition Rate=[(TR-FRET Rate of Sample−TR-FRET Rate of Negative Control)/(TR-FRET Rate of Positive Control−TR-FRET Rate of Negative Control)]×100 <Equation 2>

[2] = biological target: PI3Kα (p110α/p85α)(h) (Homo sapiens, UniProt P42336); test: Assay for phosphatidylinositol 3-kinase alpha (PI3Kα) activity, PI3K-HTRF kit; conditions: TR-FRET; enzyme 0.3625 μg/ml, 10 μM PIP2, 10 μM ATP
Chain of PI3Kα (p110α/p85α)(h) (P42336 whole entry): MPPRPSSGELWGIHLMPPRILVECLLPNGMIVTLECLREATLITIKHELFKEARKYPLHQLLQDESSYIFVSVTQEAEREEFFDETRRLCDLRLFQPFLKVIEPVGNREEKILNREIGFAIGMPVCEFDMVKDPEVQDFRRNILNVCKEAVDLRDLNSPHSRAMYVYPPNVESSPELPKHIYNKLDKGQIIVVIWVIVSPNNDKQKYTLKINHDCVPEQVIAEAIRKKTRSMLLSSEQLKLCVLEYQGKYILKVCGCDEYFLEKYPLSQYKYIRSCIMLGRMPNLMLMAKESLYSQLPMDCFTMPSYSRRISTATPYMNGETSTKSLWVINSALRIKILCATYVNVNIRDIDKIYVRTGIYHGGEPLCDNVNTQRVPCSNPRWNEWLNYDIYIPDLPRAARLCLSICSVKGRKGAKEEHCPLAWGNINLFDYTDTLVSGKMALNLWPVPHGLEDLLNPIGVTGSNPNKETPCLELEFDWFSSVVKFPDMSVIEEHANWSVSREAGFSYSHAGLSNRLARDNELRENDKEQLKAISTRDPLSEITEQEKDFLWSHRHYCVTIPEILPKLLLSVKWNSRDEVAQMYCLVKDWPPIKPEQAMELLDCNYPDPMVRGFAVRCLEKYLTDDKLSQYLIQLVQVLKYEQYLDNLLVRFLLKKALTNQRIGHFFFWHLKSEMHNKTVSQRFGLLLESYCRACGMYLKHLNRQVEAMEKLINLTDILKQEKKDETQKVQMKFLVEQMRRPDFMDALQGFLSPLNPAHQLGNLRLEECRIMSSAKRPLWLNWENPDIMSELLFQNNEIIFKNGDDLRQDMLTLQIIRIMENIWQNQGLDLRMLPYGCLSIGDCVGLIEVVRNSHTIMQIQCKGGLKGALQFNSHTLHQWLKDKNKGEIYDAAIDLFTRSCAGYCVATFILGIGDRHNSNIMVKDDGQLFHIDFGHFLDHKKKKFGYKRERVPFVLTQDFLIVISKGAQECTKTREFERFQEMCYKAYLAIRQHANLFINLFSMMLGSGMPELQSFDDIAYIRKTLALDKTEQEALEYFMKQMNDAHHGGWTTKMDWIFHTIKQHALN
Chain of PI3Kα (p110α/p85α)(h) (P27986 whole entry partner): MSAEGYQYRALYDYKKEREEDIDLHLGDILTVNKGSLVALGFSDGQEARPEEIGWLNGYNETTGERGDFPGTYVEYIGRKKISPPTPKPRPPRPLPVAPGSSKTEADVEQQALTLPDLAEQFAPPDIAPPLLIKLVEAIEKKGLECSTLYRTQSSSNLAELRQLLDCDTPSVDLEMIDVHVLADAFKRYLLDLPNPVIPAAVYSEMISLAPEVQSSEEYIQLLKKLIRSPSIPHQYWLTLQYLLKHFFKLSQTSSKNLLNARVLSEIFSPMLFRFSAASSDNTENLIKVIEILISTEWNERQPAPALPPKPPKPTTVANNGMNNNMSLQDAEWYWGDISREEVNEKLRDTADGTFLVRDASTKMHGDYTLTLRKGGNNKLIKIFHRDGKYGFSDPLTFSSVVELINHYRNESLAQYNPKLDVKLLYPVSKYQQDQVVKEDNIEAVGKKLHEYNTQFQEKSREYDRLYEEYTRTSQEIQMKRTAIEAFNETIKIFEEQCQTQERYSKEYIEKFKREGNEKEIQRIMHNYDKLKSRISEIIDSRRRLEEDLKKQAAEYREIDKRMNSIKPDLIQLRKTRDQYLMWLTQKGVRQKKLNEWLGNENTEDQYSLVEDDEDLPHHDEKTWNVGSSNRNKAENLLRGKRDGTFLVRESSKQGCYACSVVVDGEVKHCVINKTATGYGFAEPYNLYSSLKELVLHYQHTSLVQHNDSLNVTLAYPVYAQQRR
Protocol: [The source words this procedure for another target and says it was used here with some conditions changed.] as §1, §2, §3

[3] = biological target: PI3Kδ (p110δ/p85α)(h) (Homo sapiens, UniProt O00329); test: Assay for phosphatidylinositol 3-kinase delta (PI3Kδ) activity, PI3K-HTRF kit; conditions: TR-FRET; enzyme 0.725 μg/ml, 10 μM PIP2, 10 μM ATP
Chain of PI3Kδ (p110δ/p85α)(h) (O00329 whole entry): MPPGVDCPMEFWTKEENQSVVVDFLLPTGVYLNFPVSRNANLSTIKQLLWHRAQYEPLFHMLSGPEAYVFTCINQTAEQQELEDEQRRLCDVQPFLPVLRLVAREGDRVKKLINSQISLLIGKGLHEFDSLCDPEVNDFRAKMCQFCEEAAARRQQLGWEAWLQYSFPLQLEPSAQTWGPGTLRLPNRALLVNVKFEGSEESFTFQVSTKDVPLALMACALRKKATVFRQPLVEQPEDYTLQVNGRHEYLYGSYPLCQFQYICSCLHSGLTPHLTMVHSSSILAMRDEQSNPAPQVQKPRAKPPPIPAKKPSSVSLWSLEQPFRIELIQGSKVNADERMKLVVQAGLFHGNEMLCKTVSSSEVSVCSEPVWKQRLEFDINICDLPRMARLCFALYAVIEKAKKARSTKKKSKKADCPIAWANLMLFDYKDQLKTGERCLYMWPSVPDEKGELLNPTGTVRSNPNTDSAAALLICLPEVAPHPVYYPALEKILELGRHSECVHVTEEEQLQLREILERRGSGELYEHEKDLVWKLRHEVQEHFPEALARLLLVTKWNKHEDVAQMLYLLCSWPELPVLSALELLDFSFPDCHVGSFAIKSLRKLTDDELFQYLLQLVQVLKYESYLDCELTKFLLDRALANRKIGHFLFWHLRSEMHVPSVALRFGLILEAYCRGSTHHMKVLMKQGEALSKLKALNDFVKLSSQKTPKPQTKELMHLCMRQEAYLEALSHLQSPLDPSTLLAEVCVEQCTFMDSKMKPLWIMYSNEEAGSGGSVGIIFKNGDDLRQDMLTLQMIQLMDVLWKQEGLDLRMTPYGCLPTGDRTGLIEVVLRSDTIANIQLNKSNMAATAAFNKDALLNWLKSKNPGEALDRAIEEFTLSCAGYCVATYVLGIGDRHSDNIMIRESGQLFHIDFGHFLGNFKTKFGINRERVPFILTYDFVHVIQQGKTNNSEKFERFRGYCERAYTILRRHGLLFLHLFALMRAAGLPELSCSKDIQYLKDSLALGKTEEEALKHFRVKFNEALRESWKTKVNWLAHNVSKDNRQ
Chain of PI3Kδ (p110δ/p85α)(h) (P27986 whole entry partner): as the sequence (P27986 whole entry partner) above
Protocol: [The source words this procedure for another target and says it was used here with some conditions changed.] as §1, §2
as §3, with “2> […]” for “2>”

[4] = biological target: PI3K β (p110β/p85α)(h) (Homo sapiens, UniProt P42338); test: Assay for phosphatidylinositol 3-kinase beta (PI3Kβ) activity, PI3K-HTRF kit; conditions: TR-FRET; enzyme 0.725 μg/ml, 10 μM PIP2, 10 μM ATP
Chain of PI3K β (p110β/p85α)(h) (P42338 whole entry): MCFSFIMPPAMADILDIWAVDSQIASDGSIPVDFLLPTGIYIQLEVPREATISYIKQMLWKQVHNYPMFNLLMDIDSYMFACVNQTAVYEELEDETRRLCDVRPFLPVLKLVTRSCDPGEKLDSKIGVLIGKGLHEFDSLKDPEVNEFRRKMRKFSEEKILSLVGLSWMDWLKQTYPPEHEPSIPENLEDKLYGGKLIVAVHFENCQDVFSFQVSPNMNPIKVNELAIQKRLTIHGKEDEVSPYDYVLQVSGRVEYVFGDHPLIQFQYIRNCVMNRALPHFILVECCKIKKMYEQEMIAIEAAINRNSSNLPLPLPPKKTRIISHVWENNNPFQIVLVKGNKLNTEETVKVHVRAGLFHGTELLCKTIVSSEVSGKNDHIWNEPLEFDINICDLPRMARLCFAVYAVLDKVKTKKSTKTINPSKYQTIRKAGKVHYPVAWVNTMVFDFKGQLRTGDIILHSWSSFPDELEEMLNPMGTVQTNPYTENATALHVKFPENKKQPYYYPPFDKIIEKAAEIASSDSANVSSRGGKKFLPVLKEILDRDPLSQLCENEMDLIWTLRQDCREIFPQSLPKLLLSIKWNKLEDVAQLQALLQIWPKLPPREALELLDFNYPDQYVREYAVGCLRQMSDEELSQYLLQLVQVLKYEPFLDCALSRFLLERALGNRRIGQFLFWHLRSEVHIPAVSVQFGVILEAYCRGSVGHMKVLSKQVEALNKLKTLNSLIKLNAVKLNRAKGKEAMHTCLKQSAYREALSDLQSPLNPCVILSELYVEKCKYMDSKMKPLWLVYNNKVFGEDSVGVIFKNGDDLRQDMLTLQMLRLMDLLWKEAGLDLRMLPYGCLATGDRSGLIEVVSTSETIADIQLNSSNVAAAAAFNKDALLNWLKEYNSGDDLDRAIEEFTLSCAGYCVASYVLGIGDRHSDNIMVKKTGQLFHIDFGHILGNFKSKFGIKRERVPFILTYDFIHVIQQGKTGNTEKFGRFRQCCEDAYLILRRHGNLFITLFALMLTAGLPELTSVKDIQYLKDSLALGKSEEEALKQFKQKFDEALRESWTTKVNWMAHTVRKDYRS
Chain of PI3K β (p110β/p85α)(h) (P27986 whole entry partner): as the sequence (P27986 whole entry partner) above
Protocol: [The source words this procedure for another target and says it was used here with some conditions changed.] as §1, §2
as §3, with “2> […]” for “2>”

Chain of PI3Kγ (p120γ)(h) (P48736 whole entry): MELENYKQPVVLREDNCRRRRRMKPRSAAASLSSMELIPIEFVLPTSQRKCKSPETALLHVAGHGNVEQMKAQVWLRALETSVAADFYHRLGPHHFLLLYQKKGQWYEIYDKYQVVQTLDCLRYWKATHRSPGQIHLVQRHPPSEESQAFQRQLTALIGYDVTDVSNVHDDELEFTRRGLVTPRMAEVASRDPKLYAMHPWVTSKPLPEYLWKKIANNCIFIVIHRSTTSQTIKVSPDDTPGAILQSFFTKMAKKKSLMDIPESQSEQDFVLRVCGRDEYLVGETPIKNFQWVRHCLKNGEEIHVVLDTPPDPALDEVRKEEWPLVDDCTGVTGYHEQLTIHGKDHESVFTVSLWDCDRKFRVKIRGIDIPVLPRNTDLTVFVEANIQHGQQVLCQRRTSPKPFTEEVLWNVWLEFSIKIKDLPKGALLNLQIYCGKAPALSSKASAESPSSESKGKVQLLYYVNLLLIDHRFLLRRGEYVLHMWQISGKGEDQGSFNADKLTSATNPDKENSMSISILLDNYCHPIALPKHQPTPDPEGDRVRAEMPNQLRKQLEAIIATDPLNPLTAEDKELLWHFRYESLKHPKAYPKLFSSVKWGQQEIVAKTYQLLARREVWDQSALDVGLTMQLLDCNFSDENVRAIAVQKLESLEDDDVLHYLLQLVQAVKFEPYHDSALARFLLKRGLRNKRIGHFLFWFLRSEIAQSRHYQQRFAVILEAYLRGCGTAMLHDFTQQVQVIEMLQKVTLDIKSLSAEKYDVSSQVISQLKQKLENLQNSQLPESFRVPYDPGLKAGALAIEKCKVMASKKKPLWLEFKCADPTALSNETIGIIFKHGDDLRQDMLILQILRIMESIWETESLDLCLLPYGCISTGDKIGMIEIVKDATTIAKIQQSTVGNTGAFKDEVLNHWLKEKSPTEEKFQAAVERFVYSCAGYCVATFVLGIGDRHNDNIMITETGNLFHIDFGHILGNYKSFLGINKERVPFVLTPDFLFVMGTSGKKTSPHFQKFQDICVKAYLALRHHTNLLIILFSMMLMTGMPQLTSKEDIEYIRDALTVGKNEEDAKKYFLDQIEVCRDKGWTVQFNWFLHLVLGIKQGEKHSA

Structure (SMILES) | IC50 [1] [nM] | IC50 [2] [nM] | IC50 [3] [nM] | IC50 [4] [nM]
COc1ccc(-c2cncc3cc(/C=C4\SC(=S)NC4=O)oc23)cc1F [Example 161, (Z)-5-[{7-(3-Fluoro-4-methoxyphenyl)furo[3,2-c]pyridin-2-yl}methylene]-2-thioxothiazolidin-4-one] | 17 | 13 | 191 | > 10000
Cc1cc(C#Cc2cncc3cc(/C=C4\SC(=O)NC4=O)oc23)ccc1F [Example 453, (Z)-5-([7-{(4-Fluoro-3-methylphenyl)ethynyl}furo[3,2-c]pyridin-2-yl]methylene)thiazolidine-2,4-dione] | 12 | 25 | 801 | 5070
O=C1NC(=O)/C(=C/c2cc3cncc(-c4ccc(S(=O)(=O)N5CCCCC5)cc4)c3o2)S1 [Example 262, (Z)-5-([7-{4-(Piperidin-1-ylsulfonyl)phenyl}furo[3,2-c]pyridin-2-yl]methylene)thiazolidine-2,4-dione] | 38 | 33 | > 10000 | > 10000
COC(=O)c1cc(F)cc(-c2cncc3cc(/C=C4\SC(=S)NC4=O)oc23)c1 [Example 351, (Z)-Methyl 3-fluoro-5-[2-{(4-oxo-2-thioxothiazolidin-5-ylidene)methyl}furo[3,2-c]pyridin-7-yl]benzoate] | 9 | 4 | > 10000 | > 10000
Cn1cc(-c2cncc3cc(/C=C4\SC(=O)NC4=O)oc23)cn1 [Example 12, (Z)-5-[{7-(1-Methyl-1H-pyrazol-4-yl)furo[3,2-c]pyridin-2-yl}methylene]thiazolidine-2,4-dione] | 28 | 7 | > 10000 | 572
CN(C)S(=O)(=O)c1ccc(-c2cncc3cc(/C=C4\SC(=S)NC4=O)oc23)cc1F [Example 330, (Z)-2-Fluoro-N,N-dimethyl-4-[2-{(4-oxo-2-thioxothiazolidin-5-ylidene)methyl}furo[3,2-c]pyridin-7-yl]benzenesulfonamide] | 12 | 24 | > 10000 | > 10000
COc1ncc(-c2cncc3cc(/C=C4\SC(=S)NC4=O)oc23)cc1C [Example 225, (Z)-5-[{7-(6-Methoxy-5-methylpyridin-3-yl)furo[3,2-c]pyridin-2-yl}methylene]-2-thioxothiazolidin-4-one] | 43 | 4 | > 10000 | > 10000
O=C1NC(=O)/C(=C/c2cc3cncc(-c4cccc(CN5CCCCC5)c4)c3o2)S1 [Example 132, (Z)-5-([7-{3-(Piperidin-1-ylmethyl)phenyl}furo[3,2-c]pyridin-2-yl]methylene)thiazolidine-2,4-dione] | 95 | 22 | 98 | 337

Continued, values first:

IC50 [1] [nM] | IC50 [2] [nM] | IC50 [3] [nM] | IC50 [4] [nM] | Structure (SMILES)
16 | 8 | 188 | 443 | CN(C)S(=O)(=O)c1ccc(-c2cncc3cc(/C=C4\SC(=S)NC4=O)oc23)cc1OC(F)(F)F [Example 339, (Z)—N,N-Dimethyl-4-[2-{(4-oxo-2-thioxothiazolidin-5-ylidene)methyl}furo[3,2-c]pyridin-7-yl]-2-(trifluoromethoxy)benzenesulfonamide]
7 | 2 | 618 | 2270 | Cc1ccccc1C#Cc1cncc2cc(/C=C3\SC(=S)NC3=O)oc12 [Example 498, (Z)-2-Thioxo-5-[{7-(o-tolylethynyl)furo[3,2-c]pyridin-2-yl}methylene]thiazolidin-4-one]
134 | 62 | 1170 | 250 | O=C1NC(=S)S/C1=C\c1cc2cncc(C(=O)NCc3ccc(Cl)cc3)c2o1 [Example 427, (Z)—N-(4-Chlorobenzyl)-2-{(4-oxo-2-thioxothiazolidin-5-ylidene)methyl}furo[3,2-c]pyridine-7-carboxamide]
